Reference: patent US8142805B1, “Implantable devices including fixed tissues” (Clemson University Research Foundation, priority 2006, dated 2012)

System: hyaluronidase
Assay: Hyaluronic acid zymography of explant tissue capsules
Assay type: biochemical, rats
Settings: developing buffer containing 1 M neomycin; HA gels
Procedure: Hyaluronic acid zymography studies were performed to study the inhibitory effect of neomycin on hyaluronidase. Tissue capsules from 3 weeks explanted treated aortic cusp samples were homogenized and used for gel zymography. Hyaluronic acid (HA) gels were made by incorporating 170 μg/ml of HA in 10% polyacrylamide gels. The tissue extracts were run at 90 Volts for 150 minutes. Protein molecular weight standards (10-150 kDa) were used to identify the molecular weights. Gels were incubated in the developing buffer (two for each sample type) and gels were also incubated in developing buffer containing 1 M neomycin. FIG. 8a and FIG. 8B show similar band intensities for active hyaluronidases in all groups. Thus, presence of more GAGs in Group 1 (Neomycin+EDC+GLUT) was not due to lower enzyme activity in this group as compared to other groups.

NCC1OC(OC2C(CO)OC(OC3C(O)C(N)CC(N)C3OC3OC(CN)C(O)C(O)C3N)C2O)C(N)C(O)C1O (stereo not shown) [neomycin trisulfate]
effect on hyaluronidase activity (zymography band density): inhibited enzyme activity
